In patent US6232089A, “CD23 processing enzyme preparation” (SmithKline Beecham Corporation, priority 1998, dated 2001):
Entries after “also recorded” stand apart in the source; their conditions may differ. Counter-ions that a name gives are not always drawn. One block for each compound: values may come before it.

Assays:
CD23 processing enzyme [1] = test: Solubilized membrane protein CD23 processing enzyme assay; format: biochemical, human; settings: concentration not given
CD23 processing enzyme [2] = test: Membrane CD23 cleavage activity assay (sCD23 release from plasma membranes of RPMI 8866 cells); format: biochemical, human; settings: for IC50: membranes, read-out: IC50 for inhibition of CD23 processing (production of sCD23)
Method: Membrane CD23 cleavage activity assay:
Plasma membranes from RPMI 8866 cells, a human Epstein-Barr virus transformed B-cell (Sarfati et al., Immunology 60 (1987) 539-547), or a similar cell line expressing high levels of CD23 are purified using an aqueous extraction method. Cells resuspended in homogenization buffer (20 mM HEPES pH 7.4, 150 mM NaCl, 1.5 mM MgCl2, 1 mM DTT) are broken by N2 cavitation in a Parr bomb and the plasma membrane fraction mixed with other membranes recovered by centrifugation at 10,000×g. The light pellet is resuspended in 0.2 M potassium phosphate, pH 7.2 using 2 ml per 1-3 g wet cells and the nuclear pellet is discarded. The membranes are further fractionated by partitioning between Dextran 500 (6.4% w/w) and polyethylene glycol (PEG) 5000 (6.4% w/w) at 0.25 M sucrose in a total of 16 g per 10-15 mg membrane proteins (Morre and Morre, BioTechniques 7, 946-957 (1989)). The phases are separated by brief centrifugation at 1000×g and the PEG (upper) phase is collected, diluted 3-5 fold with 20 mM potassium phosphate buffer pH 7.4, and centrifuged at 100,000×g to recover membranes in that phase. The pellet is resuspended in phosphate-buffered saline and consists of 3-4 fold enriched plasma membranes as well as some other cell membranes (e.g. lysosomes, Golgi). The membranes are aliquoted and stored at -80° C. Fractionation at 6.6% Dextran/PEG yields plasma membranes enriched 10-fold.
The fractionated membranes are incubated at 37° C. for times up to 4 hours to produce fragments of CD23 which are separated from the membrane after quenching the assay with 5 uM compound 1 by centrifugation at 10,000×g. These CD23 fragments are consistent with those reported (Letellier et al, J Exp. Med. 172, 693-700 (1990)): MW, app 36-37 kDa as determined by 12% sodium dodecylsulfate-polyacrylamide electrophoresis (SDS-PAGE) of N-terminal sequence QKSQ; MW, app 33 kDa with N-terminal sequence LKSQ. Additional bands not sequenced: MW, app 28-29 kDa and a doublet at 25-26 kDa. These are detected by Western blot of the total protein in the incubation using a polyclonal antibody such as the polyclonal anti-CD23 antibody in The Binding Site (Birmingham, UK) enzyme-linked immunoassay (EIA) Bindazyme kit for the determination of soluble CD23. Following removal of the membrane by centrifugation or filtration in 0.2 micron filter plates (Durapore, Millpore), sCD23 can also be determined using the EIA kit from The Binding Site or a similar one utilizing MHM6 anti-CD23 mAb (Rowe et al., Int. J. Cancer, 29, 373-382 (1982)) or another anti-CD23 mAb as the capture antibody in a sandwich EIA. […] Samples were incubated at 37° C. for the varying times, quenched with compound 1, applied to 12% SDS-PAGE, and Western blotting on PVDF (Bio-Rad) membrane performed using standard methodology with a combination of BD4 (prepared as described in Biological example 2) and a polyclonal antibody which recognizes all soluble fragments as the primary antibody. The blot was developed by ECL, scanned using a BioImage system and quantitated using the Visage analysis package.
Inhibition of CD23 processing can also be determined by Western blot or by the 5 EIA (Elisa) method. The amount of soluble CD23 made by 0.5-5 ug membrane protein is measured either by quantitation of the Western blot as described using a Millipore BioImage system, or by EIA and compared to the amount made in the presence of various concentrations of inhibitors. Inhibitors are prepared in solutions of water or dimethylsulfoxide (DMSO) and the final DMSO concentration is not more than 2%. The enzyme activity of CD23 processing is inhibited by 1,10-phenanthroline (1 mM), and not by 1,7-phenanthroline (1 mM), PMSF (1 mM), E-64 (10 uM), pepstatin (10 uM), leupeptin (10 uM), or tosyl-leucylchloroketone (100 uM), and weakly by phosphoramidon (40% inhibition at 100 uM). The enzyme can heretofore best be described as a metalloprotease rather than a serine, cysteine or acid protease. […]

CD23 processing enzyme [3] = test: Photolabeling of membranes or solubilized membrane proteins containing the CD23 processing enzyme, 12% SDS-PAGE / 2-dimensional gel electrophoresis; format: binding; settings: for molecular weight range of photolabeled bands: 12% SDS-PAGE, ECL detection, several bands; for molecular weight range of majority of minor biotinylated spots / pH range of minor biotinylated spots (acidic proteins): 2-dimensional gel electrophoresis, 0.1 to 0.3 uM compound 4 or 1 uM compound 3
Method: Compound 4 (Synthetic Example 17), Compound 5 (Synthetic Example 17a), Compound 6 (Synthetic Example 25), and Compound 7 (Synthetic Example 27) can also be used to photolabel membranes or solubilized membrane proteins containing the CD23 processing enzyme, using the same method described for compound 3. Analysis by 12% SDS-PAGE and ECL detection of biotinylated protein, using streptavidin-HRP detects several bands in the molecular weight range 50-65 kDa.
Up to 200 ug of membrane proteins in PBS were solubilized in 0.1 % NP-40 and photolabeled with 0.1 to 0.3 uM compound 4 or 1 uM compound 3 as described for compound 3 above. The sample was then dialyzed vs. 10 mM potassium phosphate pH 7.5, 0.1% NP-40, concentrated in a Centricon 10 (Amicon, Beverly Mass.), then made 8 M in urea, 2% in Triton X-100, 0. 8% in Pharmalyte 3-10 (Pharmacia) and 50 mM in DTT. After electrophoresis in both dimensions, the proteins were blotted to PVDF, and biotinylated proteins detected with streptavidin-HRP as described above. The majority of the minor biotinylated spots observed were in the molecular weight range 50-65 kDa and were acidic proteins with pH in the range 4.5-6.0.

CD23 processing activity = test: Affinity chromatography with compound 8 on streptavidin-agarose; format: binding, human
Method: Affinity Chromatography with compound 8 (compound 28 in synthetic examples)
An affinity column was prepared with compound 8 on streptavidin-agarose beads (Pierce Chemical Co.) by overnight mixing of an estimated five equivalents of compound 8 with beads in 50 mM HEPES, pH 7.5, 0. 1% NP-40 (binding buffer). The column was washed with 20 volumes of this buffer and 20 volumes of 50 mM HEPES pH 7.5, 0.5% NP-40 in a syringe column, and re-equilibrated to binding buffer. An equivalent column with no compound 8 was also prepared. 150 ug of solubilized membranes from RPMI 8866 cells were applied to the both columns, washed with 3 ml binding buffer, 3 ml binding buffer with 0.1 M NaCl, and 3 ml binding buffer with 50 uM compound 2. Each 1 ml fraction was concentrated, diluted 10-fold and reconcentrated if compound 2 was present, and assayed as in biological example 2. For the column with no compound 8, CD23 processing activity was detected primarily in fractions 1-3, with a small amount in fractions 5 and 6.

[4] = test system: solubilized membrane proteins from BJAB cells; test: Photolabeling of Superose 12 column fractions of solubilized membrane proteins, SDS-PAGE; format: binding; settings: 1 uM compound 3, long UV, 1 min, Superose 12 fractions, single band
Method: Compound 3 is an inhibitor of CD23 processing in membranes with an IC50 of about 1-3 uM. Compound 3 (the synthesis of which is described in the Synthetic Examples section as Example 9), is [N-[4-N'-Hydroxyamino-2-(R)-2-(2-methylpropyl)succinyl]-S-4-azidophenylalanine-N"-(6-biotinoylaminohexyl)amide]. Compound 3 was prepared for use as a photolabeling agents as follows. [drawing 1]
Column fractions from a Superose 12 column of solubilized membrane proteins from BJAB cells were photolabeled with 1 uM compound 3 using a Sunlit phosphor lamp at long UV for 1 min. […] Active fractions from RPMI 8866 fractionations are similarly photolabeled.
Fractions were concentrated, photolabeled as described, applied to 12% SDS-PAGE, blotted to PVDF and photolabeled material detected with streptavidin-horseradish peroxidase (streptavidin-HRP) using ECL (Amersham) methodology. Fraction "0" indicates the photolabeling observed in an unfractionated sample. The 45 kDa MW marker protein migrated with an elution volume corresponding to fractions 17 or 18. The fraction sizes are not the same as FIG. 7.

CD23 fragments = settings: 10-20 mM, cell cultures; cited from earlier work

Structure (SMILES): CC(C)C[C@@H](C(=O)N[C@@H](Cc1ccccc1)C(=O)NCCCCCCNC(=O)CCCC[C@@H]1SC[C@@H]2NC(=O)N[C@@H]21)[C@H](CSCC(=O)c1ccc(N=[N+]=[N-])cc1)C(=O)NO [Compound 5, N-[4-Hydroxyamino-3-(S)-3-(4-azidophenacylthiomethyl)-2-(R)-2-(2-methylpropyl)succinyl]-S-phenylalanine-N'-(6-biotinoylaminohexyl)amide]
- molecular weight range of photolabeled bands (CD23 processing enzyme [3]): 50-65 kDa

Structure (SMILES): CC(C)(C)[C@H](NC(=O)[C@H](Cc1ccc(N=[N+]=[N-])cc1)[C@H](O)C(=O)NO)C(=O)NCCCCCCNC(=O)CCCC[C@@H]1SC[C@@H]2NC(=O)N[C@@H]21 [Compound 6, N'-[3S-Hydroxy-4-(N-hydroxyamino)-2R-(4-azidobenzyl)succinyl]-S-tert-leucine-N-(6-biotinoylaminohexyl)amide]
- molecular weight range of photolabeled bands (CD23 processing enzyme [3]): 50-65 kDa

Structure (SMILES): CC(C)C[C@H](CC(=O)NO)C(=O)N[C@@H](Cc1ccccc1)C(=O)NCc1ccccc1 [Compound 2]
- elution of CD23 processing activity from affinity column with compound 8 (CD23 processing activity; 50 uM compound 2): specifically eluted
- inhibition of CD23 processing (CD23 processing enzyme [2]; concentration not given): weaker inhibitor
- IC50 (CD23 processing enzyme [2]): 2000 ± 1000 nM

Structure (SMILES): Cc1ccc(S(=O)(=O)N[C@@H](CCCCN)C(=O)CCl)cc1 [TLCK]
- inhibition of CD23 processing (CD23 processing enzyme [2]; concentration not given): not inhibited

Structure (SMILES): NC(=O)CI [iodoacetamide]
- accumulation of 37 and 33 kDa CD23 fragments (CD23 fragments): results in the accumulation
- accumulation of the 25-27 kDa CD23 fragments (CD23 fragments): prevents the accumulation

Structure (SMILES): C#CCSC[C@H](C(=O)NO)[C@@H](CC(C)C)C(=O)N[C@@H](Cc1ccccc1)C(=O)NCCCCCCNC(=O)CCCC[C@@H]1SC[C@@H]2NC(=O)N[C@@H]21 [Compound 8, N-[(3-(S)-propargylthiomethyl-4-(N-Hydroxyamino)-2R-isobutyl)succinyl]-(S)-phenylalanine-N-(6-biotinoylaminohexyl)amide]
- fractions in which CD23 processing activity was detected, column with compound 8 (CD23 processing activity; binding buffer, then 0.1 M NaCl, then 50 uM compound 2, fractions 1-9): only in fractions 7-9
- inhibition of CD23 processing (CD23 processing enzyme [2]; concentration not given): inhibitor of CD23 cleavage activity

Structure (SMILES): CC(C)C[C@H](NP(=O)(O)O[C@@H]1O[C@@H](C)[C@H](O)[C@@H](O)[C@H]1O)C(=O)N[C@@H](Cc1c[nH]c2ccccc12)C(=O)O [phosphoramidon]
- inhibition (CD23 processing enzyme [2]; 100 uM): 40%
- inhibition of CD23 processing (CD23 processing enzyme [2]; 100 uM): weakly

Now from value to compound, other results behind:

- inhibition of activity producing the 33 kDa fragment (CD23 processing enzyme [1]): inhibition; also recorded: inhibited
Structure (SMILES): c1cnc2c(c1)ccc1cccnc12 [1,10-phenanthroline]
- inhibition of CD23 processing (CD23 processing enzyme [2]; 1 mM): inhibited

- molecular weight range of majority of minor biotinylated spots (CD23 processing enzyme [3]): 50-65 kDa
- pH range of minor biotinylated spots (acidic proteins) (CD23 processing enzyme [3]): 4.5-6.0
- molecular weight range of photolabeled bands (CD23 processing enzyme [3]): 50-65 kDa
Structure (SMILES): CC(C)C[C@@H](C(=O)N[C@@H](Cc1ccccc1)C(=O)NCCCCCCNC(=O)CCCC[C@@H]1SC[C@@H]2NC(=O)N[C@@H]21)[C@H](CSCC(=NO)c1ccc(N=[N+]=[N-])cc1)C(=O)NO [Compound 4, N-[4-N' Hydroxyamino-3-(S)-3-[(2-[4-azidophenyl]-2-[hydroxyimino]ethyl)-thiomethyl]-2-(R)-2-(2-methylpropyl)succinyl]-S-phenylalanine-N'-(6biotinoylaminohexyl)amide]

- molecular weight range of majority of minor biotinylated spots (CD23 processing enzyme [3]): 50-65 kDa
- pH range of minor biotinylated spots (acidic proteins) (CD23 processing enzyme [3]): 4.5-6.0
- IC50 (CD23 processing enzyme [2]): 1000 to 3000 nM
Structure (SMILES): CC(C)C[C@H](CC(=O)NO)C(=O)N[C@@H](Cc1ccc(N=[N+]=[N-])cc1)C(=O)NCCCCCCNC(=O)CCCC[C@@H]1SC[C@@H]2NC(=O)N[C@@H]21 [Compound 3, N-[4-N'-Hydroxyamino-2-(R)-2-(2-methylpropyl)succinyl]-S-4-azidophenylalanine-N"-(6-biotinoylaminohexyl)amide]
- MW, app of photolabeled band [4]: 45 kDa

- inhibition of activity producing the 33 kDa fragment (CD23 processing enzyme [1]): inhibited
- IC50 (CD23 processing enzyme [2]): 100 ± 50 nM
Structure (SMILES): CNC(=O)[C@H](Cc1ccccc1)NC(=O)[C@H](CC(C)C)[C@H](CSc1cccs1)C(=O)NO [Compound 1, [4-(N-Hydroxyamino)-2-(R)-isobutyl-3-(S)-(2-thiophenethiomethyl)succinyl]-(S)-phenylalanine-N-methylamide, sodium salt]
- inhibition of CD23 processing (CD23 processing enzyme [2]; concentration not given): inhibited

- molecular weight range of photolabeled bands (CD23 processing enzyme [3]): 50-65 kDa
Structure (SMILES): CC(C)C[C@@H](C(=O)N[C@@H](Cc1ccccc1)C(=O)NCCCCCCNC(=O)CCCC[C@@H]1SC[C@@H]2NC(=O)N[C@@H]21)[C@H](CSCc1ccc(C(=O)c2ccccc2)cc1)C(=O)NO [Compound 7, N-[(3-(S)-(4-benzoylbenzyl)thiomethyl-4-(N-Hydroxyamino)-2R-isobutyl)succinyl]-(S)-phenylalanine-N-(6-biotinoylaminohexyl)amide]
